According to patent US20220354911A1, “TREATMENT OF TUMORS BY A COMBINATION OF AN ONCOLYTIC ADENOVIRUS, A CDK4/6 INHIBITOR AND A FURTHER THERAPEUTICALLY ACTIVE AGENT” (KLINIKUM RECHTS DER ISAR DER TECHNISCHEN UNIVERSITÄT MÜNCHEN, priority 2019, published 2022):

Legend:
T24 cells [1] = experiment: Potency assay (SRB), XVir-N-31, Palbociclib and PARP inhibitor; format: cell-based; conditions: Homo sapiens, T-24, read-out: IC-80 value
Protocol: 12,500 T24 cells were seeded per well in 12-well plates and grown over-night in RPMI Medium containing 10% FCS at 37° C. Inhibitor-treatment of cells occurred 24 h past cell seeding and again 1 hour after infection by adding indicated concentration to the medium. Infection of cells took place 24 h past inhibitor-treatment in 250 μl medium without serum. Fixation and SRB-staining took place at 4 days post infection. PD, Palbociclib; PARPi: BMN673.
For SRB staining, the medium was removed by aspiration. Cells were fixed with 1 ml (per well) 10% cold TCA at 4° C. for 1 hour. TCA was removed by aspiration and cell layers were washed 4× with tap water. Cells were stained with 1 ml (per well) 0.5% SRB (sulforhodamine B) in 1% acetic acid for 30 min. Unbound SRB was removed in five washing steps with 1 ml 1% acetic acid/well; after each washing step, acetic acid was removed by aspiration. Plates were air-dried for 2 hrs. To solubilize the SRB stained cells, 200 μl of 10 mM Tris base was added to each well. […] The 96 well plate was loaded into an Elisa-plate reader and absorption of the samples was measured at 560 nm. […]
In order to show the kinetics of a triple therapy of T24 cells using triple therapy comprising XVir-N-31, Palbociclib and a PARP inhibitor (BMN673 (Talazoparib)), a potency assay was carried out and the potency assessed at different points in time. […]

T24 and UMUC-3 = experiment: FACS cell cycle analysis, Talazoparib and Palbociclib; format: cell-based, human; conditions: T24 and UMUC-3, 48 hours
Protocol: The influence of the applied small molecule inhibitors at their indicated concentrations on the cell cycle of bladder cancer cell lines T24 and UMUC-3 was analysed via flow cytometry analysis after DNA staining. 5×10^4 cells were seeded in 6-well plates and 24 hours later treated with appropriate inhibitors. Two days later, at approximately 80% confluency, cells were washed with PBS, trypsinized, washed again and fixated with icecold 80% ethanol. For cell cycle analysis, samples were incubated with the DNA-intercalating dye 7-aminoactinomycine D (7-AAD) and measured via FACS analysis. Evaluation of measured data was performed via the software FlowJo.

UMUC-3 = experiment: Potency assay (SRB), XVir-N-31, Palbociclib and PARP inhibitor; format: cell-based; conditions: Homo sapiens; UMUC3 cells; read-out: IC-80 value
Protocol: Seeding of UMUC-3: 3000 cells were seeded per well in 12-well plates and grown over-night in DMEM Medium containing 10% FCS at 37° C. Inhibitor-treatment of cell occurred 24 h past seeding and again 1 hour after infection by adding indicated concentration to the medium. Infection of cells took place 24 h past inhibitor-treatment. Fixation and SRB-staining took place at 1-6 days post infection (dpi: days post infection). 160 nM PARPi correspond to the IC-80 value in UMUC3 cells.

UMUC3 cells = experiment: Cell cycle analysis (flow cytometry) of UMUC3 cells; format: cell-based, human; conditions: UMUC3, 48 hours; Roscovitine 10 μM, CI-1040 1 μM, Nutlin-3a 10 μM, LEE011 10 μM; 10 MOI dl703
Protocol: FIG. 10 is a bar diagram showing cell cycle distribution in UMUC3 cells, measured 48 hours post treatment, whereby the concentrations of the […] inhibitors was as follows: Roscovitine: 10 μM, CI-1040: 1 μM, Nutlin-3a: 10 μM, and LEE011: 10 μM.
For cell cycle analysis cells were seeded in 6 well plates (2.5×10E4 c/well). 8 hours before infection with dl703, cells were treated with indicated concentration of cell cycle inhibitors. After infection with 10 MOI dl703 cells were again treated for 48 hours. Untreated cells and dl703 infected cells only, served as control. 48h post infection cells were harvest by trypsinization and fixed with 80% ethanol while vortexing. To investigate the cell cycle status, fixed cells were centrifuged 5 min at RT and 300 g and ethanol was aspirated. Cells were resuspended and washed with 1% BSA-PBS (Bovine Serum Albumin) and again centrifuged. Cells were stained with EDU and cell cycle analysis were performed using the Click-iT™ Plus EdU Flow Cytometry Assay Kits, Catalog nos. C10632 from Thermo Fischer. In addition, after 3× times washing with 1% BSA/PBS cells were stained with PI (Propidium Iodine, 50 μg/ml). Measurement was directly performed after staining with a FACScalibur Flow Cytometry System. Data was analyzed with FlowJo software.

Rb, phRB and E2F1 = experiment: Western blot of UMUC cells treated with cell cycle inhibitors; format: cell-based, human; conditions: 24 hours post-treatment, LEE-011 at 10 μM, MI-1040 at 1 μM
Protocol: Western Blot analysis of UMUC cells treated with indicated concentrations of CI-1040, Roscovitine, Nutlin-3a and LEE011 (Ribociclib). 1×10^6 cells were seeded in 10 cm dishes. 24 hours post-treatment proteins were isolated using 1% SDS buffer, to achieve the disruption of the nuclear membrane. All samples were drawn up several times into a syringe to disrupt the DNA and subsequently centrifuged at 30000 rpm at 4° C. for 30 minutes. The supernatant was transferred to a new reaction tube and directly used for further steps or stored at −80° C. To separate the proteins a sodium dodecyl sulfate polyacrylamide gel electrophoresis was performed. By means of electrophoresis for approximately two hours at 100V at 4° C., 40 μg of total proteins were loaded and probed against specific indicated antibodies.

253J = experiment: IC50 concentration of PD-0332991; format: cell-based; conditions: Homo sapiens
Protocol: (§1) The class of CDK4/6 inhibitors as subject to Example 5 requires expression of RB. Therefor, three RB positive and two RB negative bladder cancer derived cell lines were used and the cells treated with the combination therapy. Cell lines were pretreated for 24 hours with an IC50 concentration of PD-0332991 (T24: 500 nM, RT112: 2000 nM, 253J: 100 nM) and infected with XVir-N-31 (T24 MOI50, 253J MOI 25, RT112 MOI450). Values are the average of at least 2 independent experiments. Error bars show the standard error. Four dpi, cell viability was measured using SRB assays (a, c). (b, d) Lysates of cells were prepared 3 dpi and a titer test was performed on Hek293 cells. Viral titer is shown as fold change relative to control

RT112 = experiment: IC50 concentration of PD-0332991; format: cell-based; conditions: Homo sapiens, RT-112
Protocol: as §1

T24 = experiment: IC50 concentration of PD-0332991; format: cell-based; conditions: Homo sapiens, T-24
Protocol: as §1

dl703 = experiment: E1A-independent viral DNA replication of dl703 (fiber qPCR); format: cell-based, Mastadenovirus, Type C, Serotype 5; conditions: UMUC cells, 1 μM CI-1040, 50 MOI dl703, 48 hours post infection
Protocol: To investigate the differences in replication of dl703 (Mantwill et al. 2013, Journal of Translational Medicine, 11, 216) under different treatment conditions, DNA-replication analysis was performed. 100,000 UMUC cells were seeded in 6-well plates and grown in DMEM medium containing 10% FCS in 5% CO2 conditions at 37° C. 24 hours post seeding cells were treated for 24 hours with 10 μM Lee (Ribociclib), 1 μM CI-1040, 10 μM Nutlin-3a and 10 μM Roscovertine and again after infection adding an appropriate amount of inhibitors to the medium. Infection with 50 MOI dl703 (Mastadenovirus, Type C, Serotype 5 with a 3.2 kb sized deletion in E1 region) took place 24 hours post treatment. After 4 and 48 hours post infection DNA were isolated and qPCR was performed using specific primers for the viral fiber gene. Fiber fwd. 5′-[…]-3′ (SEQ ID NO: 17); Fiber rev. 5′-[…]-3′ (SEQ ID NO: 18).

XVir-N-31 = XVir-N-31 fiber DNA qPCR with BET inhibitors and BET degraders; format: cell-based, Mastadenovirus, Type C, Serotype 5; conditions: UMUC-3 (MOI 10) and RT112 (MOI 50), 24 hours post infection
Protocol: 3×10^4 UMUC-3 cells and 4×10^4 RT112 cells were seeded in 12 well plates in DMEM and RPMI medium. The following day the cells were pretreated with BETi and BETd. 48 hours post seeding the cells were infected with 10 MOI for UMUC-3 and 50 MOI for RT112 and treated with the indicated concentration of BETi and BETd. After each timepoint (4, 24 hour) the cells were washed once with PBS and 200 μl of SDS DNA Lysis Buffer was added. The cells were incubated with Proteinase K before undergoing a Phenol-Chloroform-Isoamylalcohol purification. The DNA was diluted in DNase free water and the concentration of the DNA was determined using a Nanodrop. For each sample a solution of 15 ng/μl was prepared and a RT-qPCR using 75 ng of DNA and a GoTaq Master mix. Specific Fiber forward and reverse primers were used and for the calculation of the Δ ct value specific Actin primers were used as well. For each sample 3 Fiber and 3 Actin values were measured. The calculation was done in excel and each 24 hours was calculated based on its 4 hours value (initial viral entry, before replication).

SK-N-MC cells = experiment: Cell cycle distribution (propidium iodine) of SK-N-MC cells; format: cell-based; conditions: 48 hours post treatment, MK-1775 at 500 nM
Protocol: 48 hours post treatment cells were washed twice took place with PBS (containing RNase A, 100 U/ml). Cells were trypsinized and centrifuged at 1500 rpm, 4° C. for 5 min. Cells are fixed by adding slowly 1 ml of ice-cold 80% Ethanol drop by drop to the pellet and incubated overnight. Staining was performed by adding 1 ml of staining solution (Propidium Iodine, 50 μg/ml) to the cells and incubating 30-60 min at RT with gentle rocking. MK: MK-1775; LY: LY-2835219.

T24 cells [2] = experiment: Potency assay/SRB staining, XVir-N-31, Nutlin-3a and Palbociclib; format: cell-based, human; conditions: T24, 30 μM Nutlin-3a, 500 nM Palbociclib, four dpi
Protocol: (§2) Cell killing using XVir-N-31 alone and in combination with small molecule inhibitors was analysed in 12-well plates. […] At 1 hpi, complete medium with Palbociclib was added to the cells pretreated with Palbociclib. To the control as well as to the Nutlin treated cell complete medium without inhibitors was added.
A potency assay using T24 cells was carried out for determining the cell killing effect of XVir-N-31 alone, XVir-N-31 with Nutlin-3a, XVir-N-31 with Palbociclib, and XVir-N-31 with both Nutlin-3a and Palbociclib.

T24shRB cells = experiment: as above; format: cell-based, human; conditions: 30 μM Nutlin-3a, 500 nM Palbociclib, four dpi
Protocol: as §2
The same potency assay as subject to Example 27.2 was carried out using T24shRB cells. T24shRB cells are T24 cells without Rb expression. Such lacking Rb expression was generated by means of lentiviral transfection, wherein the lentivirus coded for shRNA directed to Rb. The lentivirus vector used was pLKO-RB1-shRNA19 (obtained from Addgene, Watertown, Mass. 02472, USA), the sequence of the shRNA was as follows […] (SEQ ID NO: 39). The procedure is also described by Michaud K et al. (Cancer Res. 2010 Apr. 15. 70(8):3228-38).

`Cn1ncnc1[C@H]1c2n[nH]c(=O)c3cc(F)cc(c23)N[C@@H]1c1ccc(F)cc1` [PARPi] was tested, and the IC80 (T24 cells [1]) was 15 nM, the “G1 arrest on addition of Talazoparib” value (T24 and UMUC-3) was “not influenced” and the IC80 (UMUC-3) was 160 nM.
With `CC[C@H](CO)Nc1nc(NCc2ccccc2)c2ncn(C(C)C)c2n1` [Roscovitine] the cell cycle distribution (UMUC3 cells) was “slight increase of G2/m arrested cells” and the “Rb, phRB and E2F1 expression” value (Rb, phRB and E2F1) was “no pronounced effect”.
`CC(=O)c1c(C)c2cnc(Nc3ccc(N4CCNCC4)cn3)nc2n(C2CCCC2)c1=O` [Palbociclib] gave an IC50 (253J) of 100 nM, an IC50 (RT112) of 2000 nM and an IC50 (T24) of 500 nM.
In the case of `O=C(NOCC1CC1)c1ccc(F)c(F)c1Nc1ccc(I)cc1Cl` [CI-1040], the “viral DNA replication of dl703” value (dl703) is reported as “much lower compared to Ribociclib treated cells”, the cell cycle distribution (UMUC3 cells) is reported as “clear G1-arrest” and the “Rb, phRB and E2F1 expression” value (Rb, phRB and E2F1) is reported as “induced inhibition”.
With `COc1nnc2ccc(N3CCC(c4ccc(OCCN5CCN(C)C(=O)[C@H]5C)cc4)CC3)nn12` [AZD5153] the “replication of XVir-N-31” value (XVir-N-31) was “highest”.
`C=CCn1c(=O)c2cnc(Nc3ccc(N4CCN(C)CC4)cc3)nc2n1-c1cccc(C(C)(C)O)n1` [MK-1775] was tested, and the cell cycle (SK-N-MC cells) was “increase of cells in G2/M”.
In the case of `CCN1CCN(Cc2ccc(Nc3ncc(F)c(-c4cc(F)c5nc(C)n(C(C)C)c5c4)n3)nc2)CC1` [Abemaciclib], the cell cycle (SK-N-MC cells) is reported as “no effect”.
In the case of `COc1ccc(C2=N[C@@H](c3ccc(Cl)cc3)[C@@H](c3ccc(Cl)cc3)N2C(=O)N2CCNC(=O)C2)c(OC(C)C)c1` [Nutlin-3a], the cell cycle distribution (UMUC3 cells) is reported as “only little or no effect on the cell cycle”, the “cell killing by XVir-N-31” value (T24 cells [2]) is reported as “enhanced cell killing” and the “Rb, phRB and E2F1 expression” value (Rb, phRB and E2F1) is reported as “no pronounced effect”. For the same molecule, the “killing of Rb-negative cells by XVir-N-31” value (T24shRB cells) was “not effective”.
